Experimental data taken from patent US20240166703A1, “ANTI-INFLAMMATORY PEPTIDE AND METHOD OF USE THEREOF” (The Regents of the University of California, priority 2021, published 2024).
“Also recorded” adds a separate entry of the source.

Tests used:
[1] = system: MAP kinases JNK, Erk2 and p38; assay: Western blot of MAP kinase phosphorylation in TNF-α-treated HeLa cells; assay type: cell-based, human
Procedure: (§1) Equivalent amounts of protein from cell extracts was separated by SDS-PAGE and transferred to polyvinylidene fluoride (PVDF) membranes (Millipore, Bedford, MA, USA). The membrane was blocked with 5% bovine serum albumin (BSA) for 1 hour at room temperature and then the membrane was incubated with the primary antibodies overnight at 4° C. Antibodies for IKK2, His, HA, Myc, GST, Ubiquitin, IκBα, phospho-IKK2, p65/ReIA, p84, γ-Actin, p100/52, phospho-ERK, phospho-JNK, phospho-p38, ERK, JNK, and p38 were used for detecting multiple specific protein targets. After binding of an appropriate secondary antibody coupled to horseradish peroxidase, the immunoreactive bands were visualized by enhanced chemiluminescence substrate.
It was also tested if TAT-NEMO^ActPep has any effect on non-canonical NF-κB signaling. This alternative NF-κB signaling pathway is activated in response to stimulation of specific cytokine receptors and leads to activation of IKK1 and consequent processing of the p100 precursor to the mature NF-κB subunit p52 (30,31). […] To further investigate the possible involvement of TAT-NEMO^ActPep in other signaling pathways, the effect of the peptide on MAPK activation was tested by monitoring the phosphorylation status of JNK, Erk2, and p38 upon TNF-α treatment of HeLa cells. […]

[2] = system: non-canonical NF-κB signaling (IKK1, p100 processing); assay: Western blot of p100 processing after LTβR engagement (non-canonical NF-κB signaling); assay type: cell-based; settings: increasing peptide concentrations; HeLa cells per FIG. 5C legend
Procedure: (§2) HeLa, MEF, RAW 264.7 cells were cultured in Dulbecco's MEM containing 10% fetal bovine […] supplemented with penicillin and streptomycin, at 37° C. in a humidity incubator with 5% CO2. RAW 264.7 cells were seeded and allowed to adhere for 24 hours then treated with NEMO^ActPep or NEMO^ActPep 6G at different concentrations 60 min before the LPS challenge (100 ng/ml). After 2 hours, nuclear and cytoplasmic extracts were collected. HeLa and MEF cells seeded for 24 hours then treated with NEMO^ActPep or NEMO^ActPep 6G at different concentrations 60 min before the TNF-α challenge (10 ng/ml) for 15 minutes and then nuclear and cytoplasmic extracts were collected. MEF cells were treated with NEMO^ActPep or NEMO^ActPep 6G at different concentrations 1 hour before the LTβR challenge (300 ng/ml). After 24 hours whole cell extracts were collected and aliquoted and kept at −80° C. for further experiments.
Equivalent amounts of protein from cell extracts was separated by SDS-PAGE and transferred to polyvinylidene fluoride (PVDF) membranes (Millipore, Bedford, MA, USA). The membrane was blocked with 5% bovine serum albumin (BSA) for 1 hour at room temperature and then the membrane was incubated with the primary antibodies overnight at 4° C. […]

[3] = system: canonical NF-κB signaling through IKK2 in HeLa cells; assay: Western blot of canonical NF-κB signaling in TNF-α-treated HeLa cells; assay type: cell-based, human; settings: increasing peptide concentrations
Procedure: To prepare nuclear and cytoplasmic protein extracts, HeLa, MEF, and RAW 264.7 cells were lysed in buffer containing 4.3 mM Na2HPO4, 1.47 mM KH2PO4 pH 7.4, 137 mM NaCl, 2.7 mM KCl, 1 mM DTT, 0.05% (v/v) NP-40, and 1×protease inhibitor cocktail for 10 minutes on ice and spun at 3,000 rpm at 4° C. for 10 minutes. The supernatant containing the cytoplasmic fraction was quantified by Bio-Rad protein assay to determine the total amount of protein. Pellets were resuspended in nuclear extraction buffer (25 mM Tris-HCl pH 7.5, 420 mM NaCl, 10% glycerol, 0.2 mM EDTA, 1 mM DTT, 0.5 mM PMSF, 1×protease inhibitor cocktail) once and then subjected to three lysis cycles (freeze at −80° C. and thaw at 37° C.). Finally, samples were centrifuged at 13,000 rpm at 4° C. for 20 minutes, and supernatants containing the soluble nuclear fraction were measured by the Bio-Rad protein assay to determine the total amount of protein. Nuclear and cytoplasmic extracts were aliquoted and kept at −80° C.
as §2, §1
The inhibitory effects of TAT-NEMO^ActPep were further verified on canonical NF-κB signaling in HeLa cells by assessing IKK2 activation loop phosphorylation, IκBα degradation, and NF-κB ReIA/p65 subunit subcellular localization. Consistent with the observations of decreased nuclear NF-κB DNA binding activity by EMSA, treatment with TAT-NEMO^ActPep blocked IKK2 phosphorylation, IκBα proteolysis, and nuclear translocation of ReIA (FIG. 5B).

[4] = system: constitutive nuclear transcription factor Oct1; assay: EMSA of Oct1 binding to its probe, HeLa nuclear extracts; assay type: cell-based, human; settings: peptide 10-50 μM

With “TAT-NEMO^ActPep: HIV-1 TAT fused flexibly to human NEMO amino acids 375-391; cell permeable version of NEMO activation peptide (SEQ ID NO 2) (YGRKKRRQRRRGGLSSPLALPSQRRSPPEE)” the “phosphorylation of JNK, Erk2 and p38 MAP kinases (western blot)” value [1] was “Neither TAT-NEMO^ActPep nor TAT-NEMO^ActPep 6G influenced; also recorded: no effect”, the “processing of p100 in response to LTβR engagement (western blot)” value [2] was “not observed any effect; also recorded: no change in the extent of p100 processing” and the “IKK2 activation loop phosphorylation (western blot)” value [3] was “blocked; also recorded: significantly diminished”. The “IκBα degradation / proteolysis (western blot)” value [3] was “blocked; also recorded: significantly diminished”, the “NF-κB ReIA/p65 subunit nuclear localization (western blot)” value [3] was “blocked; also recorded: significantly diminished” and the “binding of Oct1 to its probe (EMSA)” value [4] was “not affected”.
